Assay results reported in the supplement of paper PMC10307832.

Columns and labels:
Test in all cases: relative viability (nuclei count vs DMSO), 5 days (fraction); higher = more cells survive
[1] = tested on: HOP-62
In short: (§1)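 Relative viability was taken as the ratio of nuclei in treated wells to nuclei in vehicle wells. Lung cancer cell lines in 1536-well plates received compounds by pin tool one day after seeding, either one drug alone or a fixed anchor-drug dose plus five library-drug doses (not always all listed) in √10 steps. Nuclei were counted on 4× images after 5 days of treatment, and values are medians of duplicate plates.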

[2] = tested on: NCI-H2405
In short: as §1

[3] = tested on: NCI-H647
In short: as §1

[4] = tested on: 201T
In short: as §1

[5] = tested on: LK-2
In short: as §1

[6] = tested on: COR-L23
In short: as §1

[7] = tested on: NCI-H460
In short: as §1

[8] = tested on: EMC-BAC-2
In short: as §1

[9] = tested on: EKVX
In short: as §1

[10] = tested on: NCI-H1915
In short: as §1

[11] = tested on: NCI-H1734
In short: as §1

[12] = tested on: SK-MES-1
In short: as §1

[13] = tested on: PC-14
In short: as §1

[14] = tested on: A-427
In short: as §1

[15] = tested on: BEN
In short: as §1

[16] = tested on: HCC-15
In short: as §1

[17] = tested on: HCC-78
In short: as §1

[18] = tested on: HCC-366
In short: as §1

[19] = tested on: COR-L 105
In short: as §1

With `Cc1cn(-c2cc(NC(=O)c3ccc(C)c(Nc4nccc(-c5cccnc5)n4)c3)cc(C(F)(F)F)c2)cn1` [Nilotinib] + CC1(C)CCC(c2ccc(Cl)cc2)=C(CN2CCN(c3ccc(C(=O)NS(=O)(=O)c4ccc(N[C@H](CCN5CCOCC5)CSc5ccccc5)c(S(=O)(=O)C(F)(F)F)c4)cc3)CC2)C1 [Navitoclax] (partner 0.5 µM) the relative viability ([1]; first compound 0.001 µM) was 0.832, the relative viability ([1]; first compound 0.003162 µM) was 1.05 and the relative viability ([1]; first compound 0.01 µM) was 1.24. The relative viability ([1]; first compound 0.03162 µM) was 0.94, the relative viability ([1]; first compound 0.1 µM) was 0.454 and the relative viability ([2]; first compound 0.001 µM) was 0.733. For the same compound, the relative viability ([2]; first compound 0.003162 µM) was 0.761, the relative viability ([2]; first compound 0.01 µM) was 0.764 and the relative viability ([2]; first compound 0.03162 µM) was 0.596. For the same compound, the relative viability ([2]; first compound 0.1 µM) was 0.439, the relative viability ([3]; first compound 0.001 µM) was 0.952 and the relative viability ([3]; first compound 0.003162 µM) was 1.42. The relative viability ([3]; first compound 0.01 µM) was 1.26, the relative viability ([3]; first compound 0.03162 µM) was 0.997 and the relative viability ([3]; first compound 0.1 µM) was 0.974. It also gave a relative viability ([4]; first compound 0.001 µM) of 1.22, a relative viability ([4]; first compound 0.003162 µM) of 1.29 and a relative viability ([4]; first compound 0.01 µM) of 1.25. It also gave a relative viability ([4]; first compound 0.1 µM) of 1.21, a relative viability ([5]; first compound 0.001 µM) of 0.759 and a relative viability ([5]; first compound 0.003162 µM) of 0.939. For the same compound, the relative viability ([5]; first compound 0.01 µM) was 1, the relative viability ([5]; first compound 0.03162 µM) was 0.743 and the relative viability ([5]; first compound 0.1 µM) was 0.945. The relative viability ([6]; first compound 0.001 µM) was 0.835, the relative viability ([6]; first compound 0.003162 µM) was 1.17 and the relative viability ([6]; first compound 0.01 µM) was 1.18. The relative viability ([6]; first compound 0.03162 µM) was 0.953, the relative viability ([6]; first compound 0.1 µM) was 0.864 and the relative viability ([7]; first compound 0.001 µM) was 1.02. It also gave a relative viability ([7]; first compound 0.003162 µM) of 1.48, a relative viability ([7]; first compound 0.01 µM) of 1.76 and a relative viability ([7]; first compound 0.03162 µM) of 0.628. It also gave a relative viability ([7]; first compound 0.1 µM) of 0.975, a relative viability ([8]; first compound 0.001 µM) of 0.919 and a relative viability ([8]; first compound 0.003162 µM) of 1.45. It also gave a relative viability ([8]; first compound 0.01 µM) of 1.69, a relative viability ([8]; first compound 0.03162 µM) of 0.852 and a relative viability ([8]; first compound 0.1 µM) of 1.23. It also gave a relative viability ([9]; first compound 0.001 µM) of 0.795, a relative viability ([9]; first compound 0.003162 µM) of 1.29 and a relative viability ([9]; first compound 0.01 µM) of 1.42. It also gave a relative viability ([9]; first compound 0.03162 µM) of 0.764, a relative viability ([9]; first compound 0.1 µM) of 1.21 and a relative viability ([10]; first compound 0.001 µM) of 0.764. The relative viability ([10]; first compound 0.003162 µM) was 0.813, the relative viability ([10]; first compound 0.01 µM) was 0.807 and the relative viability ([10]; first compound 0.03162 µM) was 0.751. It also gave a relative viability ([10]; first compound 0.1 µM) of 0.781, a relative viability ([11]; first compound 0.001 µM) of 0.704 and a relative viability ([11]; first compound 0.003162 µM) of 1.03. For the same compound, the relative viability ([11]; first compound 0.01 µM) was 1.06, the relative viability ([11]; first compound 0.03162 µM) was 0.434 and the relative viability ([11]; first compound 0.1 µM) was 0.543. It also gave a relative viability ([12]; first compound 0.001 µM) of 1.17, a relative viability ([12]; first compound 0.003162 µM) of 1.5 and a relative viability ([12]; first compound 0.01 µM) of 1.61. It also gave a relative viability ([12]; first compound 0.03162 µM) of 1.1, a relative viability ([12]; first compound 0.1 µM) of 1.29 and a relative viability ([13]; first compound 0.003162 µM) of 1.09. The relative viability ([13]; first compound 0.01 µM) was 1.19, the relative viability ([13]; first compound 0.03162 µM) was 0.882 and the relative viability ([13]; first compound 0.1 µM) was 1.07. For the same compound, the relative viability ([14]; first compound 0.001 µM) was 0.984, the relative viability ([14]; first compound 0.01 µM) was 0.998 and the relative viability ([14]; first compound 0.03162 µM) was 0.908. For the same compound, the relative viability ([14]; first compound 0.1 µM) was 0.923, the relative viability ([15]; first compound 0.001 µM) was 0.0648 and the relative viability ([15]; first compound 0.003162 µM) was 0.0542. For the same compound, the relative viability ([15]; first compound 0.01 µM) was 0.0592, the relative viability ([15]; first compound 0.1 µM) was 0.0654 and the relative viability ([16]; first compound 0.001 µM) was 0.631. For the same compound, the relative viability ([16]; first compound 0.003162 µM) was 0.824, the relative viability ([16]; first compound 0.01 µM) was 0.716 and the relative viability ([16]; first compound 0.03162 µM) was 0.511. For the same compound, the relative viability ([16]; first compound 0.1 µM) was 0.57, the relative viability ([17]; first compound 0.001 µM) was 0.876 and the relative viability ([17]; first compound 0.003162 µM) was 0.692. It also gave a relative viability ([17]; first compound 0.01 µM) of 0.945, a relative viability ([17]; first compound 0.03162 µM) of 0.724 and a relative viability ([17]; first compound 0.1 µM) of 0.737. The relative viability ([18]; first compound 0.001 µM) was 1.07, the relative viability ([18]; first compound 0.01 µM) was 1.62 and the relative viability ([18]; first compound 0.03162 µM) was 0.696. It also gave a relative viability ([18]; first compound 0.1 µM) of 0.744, a relative viability ([19]; first compound 0.001 µM) of 0.709 and a relative viability ([19]; first compound 0.01 µM) of 0.696. The relative viability ([19]; first compound 0.03162 µM) was 0.644 and the relative viability ([19]; first compound 0.1 µM) was 0.848.
